Values of other authors, collected in US20220378773A1, “METHODS FOR TREATING LEUKEMIA AND USE OF A LEUKEMIC STEM CELL SIGNATURE TO PREDICT CLINICAL SENSITIVITY TO THERAPIES” (CELGENE CORPORATION, priority 2019, published 2022).

What was measured:
[1] = tested on: acute myeloid leukemia (AML) at relapse; conditions: administered alone; cited from earlier work
[2] = relative humidity increased from about 0% to about 90% RH; cited from earlier work

In the case of “CT-011: anti-PD-1 antibody, a humanized antibody”, the “response in treating AML at relapse” value [1] is listed as “failed to show response”.

For `O=C1CCC(N2Cc3cc(CNC(=O)C(F)(F)c4ccc(Cl)cc4)ccc3C2=O)C(=O)N1` (stereo not shown) [Form C, 2-(4-chlorophenyl)-N-((2-(2,6-dioxopiperidin-3-yl)-1-oxoisoindolin-5-yl)methyl)-2,2-difluoroacetamide], the water uptake [2] is given as “about 0.6 % w/w”.

In the case of `O=C1CCC(N2Cc3cc(CNC(=O)C(F)(F)c4ccc(Cl)cc4)ccc3C2=O)C(=O)N1` (stereo not shown) [Form B, 2-(4-chlorophenyl)-N-((2-(2,6-dioxopiperidin-3-yl)-1-oxoisoindolin-5-yl)methyl)-2,2-difluoroacetamide], the water uptake [2] is listed as “about 1.4 % w/w”.

For `O=C1CCC(N2Cc3cc(CNC(=O)C(F)(F)c4ccc(Cl)cc4)ccc3C2=O)C(=O)N1` (stereo not shown) [Form A, 2-(4-chlorophenyl)-N-((2-(2,6-dioxopiperidin-3-yl)-1-oxoisoindolin-5-yl)methyl)-2,2-difluoroacetamide], the water uptake [2] is given as “about 1.2 % w/w”.
